One test deals with GST-hRIPK1 (8-327) (Homo sapiens (Human), UniProt Q13546). Nature of the test: Fluorescent Polarization Binding (FP Binding) assay.
The subject of test [1] is FADD-deficient Jurkat cells. The experiment in a line: Cellular necroptosis assay (human TNFα-induced necrosis, CellTiter-Glo). It is filed as cell-based. To be noted: 48 h. (In ATP-based viability assays light output follows the ATP content of the culture.)
Setting [2] is: Homo sapiens, Jurkat, TNFα 10 ng/mL, read-out: Cell IC50.

Read-outs that look alike come from different tables or passages of the source.

Sequence of GST-hRIPK1 (8-327) (Q13546 8-327): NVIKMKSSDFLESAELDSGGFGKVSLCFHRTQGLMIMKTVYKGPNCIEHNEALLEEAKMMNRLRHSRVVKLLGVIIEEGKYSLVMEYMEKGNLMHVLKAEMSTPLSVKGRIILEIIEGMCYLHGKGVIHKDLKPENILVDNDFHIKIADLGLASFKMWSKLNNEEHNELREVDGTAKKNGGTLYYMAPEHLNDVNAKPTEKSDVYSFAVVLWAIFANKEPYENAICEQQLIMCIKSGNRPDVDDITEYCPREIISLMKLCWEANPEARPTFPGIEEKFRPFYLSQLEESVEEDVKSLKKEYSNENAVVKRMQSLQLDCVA

On to `CN1C(=O)[C@@H](NC(=O)c2nn(Cc3cncc(F)c3)cc2F)COc2cccnc21` [Example 137, (S)-4-Fluoro-1-((5-fluoropyridin-3-yl)methyl)-N-(5-methyl-4-oxo-2,3,4,5-tetrahydropyrido[3,2-b][1,4]oxazepin-3-yl)-1H-pyrazole-3-carboxamide], for which the IC50 (on GST-hRIPK1 (8-327); in test [1] (setting [2])) was 0.1 to 1000 nM throughout.

With `CN1C(=O)[C@@H](NC(=O)c2nn(Cc3cncc(C#N)c3)cc2F)COc2cccnc21` [Example 168, (S)-1-((5-cyanopyridin-3-yl)methyl)-4-fluoro-N-(5-methyl-4-oxo-2,3,4,5-tetrahydropyrido[3,2-b][1,4]oxazepin-3-yl)-1H-pyrazole-3-carboxamide], the IC50 (on GST-hRIPK1 (8-327); in test [1] (setting [2])) was 0.1 to 1000 nM throughout.

`CN1C(=O)[C@@H](NC(=O)c2nnc(Cc3ccccc3)[nH]2)COc2cnccc21` [Example 41, (S)-5-benzyl-N-(1-methyl-2-oxo-1,2,3,4-tetrahydropyrido[3,4-b][1,4]oxazepin-3-yl)-4H-1,2,4-triazole-3-carboxamide]: the IC50 (at GST-hRIPK1 (8-327); in test [1] (setting [2])) was 0.1 to 1000 nM in each case.

Regarding `O=C(N[C@H]1COc2cccnc2NC1=O)c1ncc(Cc2ccccc2)s1` [Example 123, (S)-5-benzyl-N-(4-oxo-2,3,4,5-tetrahydropyrido[3,2-b][1,4]oxazepin-3-yl)thiazole-2-carboxamide], the IC50 (on GST-hRIPK1 (8-327); in test [1] (setting [2])) was 0.1 to 1000 nM each time.

As to `CN1C(=O)[C@@H](NC(=O)c2nnc(C3(c4ccccc4)CC3)o2)CCc2nccnc21` [Example 180A, (S)—N-(5-methyl-6-oxo-6,7,8,9-tetrahydro-5H-pyrazino[2,3-b]azepin-7-yl)-5-(1-phenylcyclopropyl)-1,3,4-oxadiazole-2-carboxamide], the IC50 (on GST-hRIPK1 (8-327); in test [1] (setting [2])) was 0.1 to 1000 nM each time.

With `CN1C(=O)[C@@H](NC(=O)c2nn(Cc3cccc(F)c3)cc2F)COc2cccnc21` [Example 135, (S)-4-Fluoro-1-(3-fluorobenzyl)-N-(5-methyl-4-oxo-2,3,4,5-tetrahydropyrido[3,2-b][1,4]oxazepin-3-yl)-1H-pyrazole-3-carboxamide], the IC50 (on GST-hRIPK1 (8-327); in test [1] (setting [2])) was 0.1 to 1000 nM each time.

Take `N#Cc1cccc(Cc2nnc(C(=O)N[C@@H]3C(=O)Nc4c(F)cc(F)cc4[C@@H]4C[C@H]34)[nH]2)c1` [Example 181B, 5-(3-cyanobenzyl)-N-((1aS,2S,8bR)-5,7-difluoro-3-oxo-1,1a,2,3,4,8b-hexahydrobenzo[b]cyclopropa[d]azepin-2-yl)-4H-1,2,4-triazole-3-carboxamide]: the IC50 (at GST-hRIPK1 (8-327); in test [1] (setting [2])) was 0.1 to 1000 nM each time.

For `CN1C(=O)[C@@H](NC(=O)c2nnc(Cc3ccccc3)[nH]2)COc2c(C#N)cccc21` [Example 56, (S)-5-benzyl-N-(9-cyano-5-methyl-4-oxo-2,3,4,5-tetrahydrobenzo[b][1,4]oxazepin-3-yl)-2H-1,2,4-triazole-3-carboxamide], the IC50 (at GST-hRIPK1 (8-327); in test [1] (setting [2])) was 0.1 to 1000 nM each time.

As to `C[C@H]1Oc2cccnc2N(C)C(=O)[C@H]1NC(=O)c1cc(Oc2ccccc2F)ccn1` [Example 117, N-((2R,3S)-2,5-dimethyl-4-oxo-2,3,4,5-tetrahydropyrido[3,2-b][1,4]oxazepin-3-yl)-4-(2-fluorophenoxy)picolinamide], the IC50 (on GST-hRIPK1 (8-327); in test [1] (setting [2])) was 0.1 to 1000 nM in each case.

`Cc1nc2c(s1)CC[C@H](NC(=O)c1nnc(Cc3ccccc3)[nH]1)C(=O)N2C` [Example 38A, (S)-5-benzyl-N-(2,4-dimethyl-5-oxo-5,6,7,8-tetrahydro-4H-thiazolo[4,5-b]azepin-6-yl)-4H-1,2,4-triazole-3-carboxamide]: the IC50 (at GST-hRIPK1 (8-327); in test [1] (setting [2])) was 0.1 to 1000 nM in each case.

With `CN1C(=O)[C@@H](NC(=O)c2nnc(C3(c4ccccc4)CC3)[nH]2)COc2ccccc21` [Example 35, (S)—N-(5-methyl-4-oxo-2,3,4,5-tetrahydrobenzo[b][1,4]oxazepin-3-yl)-5-(1-phenylcyclopropyl)-4H-1,2,4-triazole-3-carboxamide], the IC50 (at GST-hRIPK1 (8-327); in test [1] (setting [2])) was 0.1 to 1000 nM each time.

Take `[2H]C([2H])([2H])N1C(=O)[C@@H](NC(=O)c2nnc(Cc3ccccc3)o2)[C@@H](C)Oc2cccnc21` [Example 174, 5-benzyl-N-((2R,3S)-2-methyl-5-trideuteriomethyl-4-oxo-2,3,4,5-tetrahydropyrido[3,2-b][1,4]oxazepin-3-yl)-1,3,4-oxadiazole-2-carboxamide]: the IC50 (at GST-hRIPK1 (8-327); in test [1] (setting [2])) was 0.1 to 1000 nM throughout.

In the case of `CN1C(=O)[C@@H](NC(=O)c2nn(Cc3cccc(C#N)c3)cc2F)COc2cccnc21` [Example 144, (S)-1-(3-cyanobenzyl)-4-fluoro-N-(5-methyl-4-oxo-2,3,4,5-tetrahydropyrido[3,2-b][1,4]oxazepin-3-yl)-1H-pyrazole-3-carboxamide], the IC50 (on GST-hRIPK1 (8-327); in test [1] (setting [2])) was 0.1 to 1000 nM each time.

As to `CN1C(=O)[C@@H](NC(=O)c2nnc(Cc3ccccc3)[nH]2)C[C@@H](F)c2ccccc21` (mixture of isomers) [Example 11, 5-benzyl-N-((3S,5R)-5-fluoro-1-methyl-2-oxo-2,3,4,5-tetrahydro-1H-benzo[b]azepin-3-yl)-4H-1,2,4-triazole-3-carboxamide and 5-benzyl-N-((3R,5S)-5-fluoro-1-methyl-2-oxo-2,3,4,5-tetrahydro-1H-benzo[b]azepin-3-yl)-4H-1,2,4-triazole-3-carboxamide], in test [1] (setting [2]), the IC50 lay within 0.1 to 1000 nM.

Regarding `CN1C(=O)[C@@H](NC(=O)c2nc3cccc(-c4ccccc4)c3s2)COc2ccccc21` [Example 84, (S)—N-(5-methyl-4-oxo-2,3,4,5-tetrahydrobenzo[b][1,4]oxazepin-3-yl)-7-phenylbenzo[d]thiazole-2-carboxamide], the IC50 in test [1] (setting [2]) lay in the range of 0.1 to 1000 nM.

`CN1C(=O)[C@@H](NC(=O)c2cc(Cc3ccccc3)on2)[C@H]2C[C@H]2c2cccnc21` [Example 81A, 5-benzyl-N-((1aS,2S,8bR)-4-methyl-3-oxo-1,1a,2,3,4,8b-hexahydrocyclopropa[d]pyrido[2,3-b]azepin-2-yl)isoxazole-3-carboxamide]: the IC50 in test [1] (setting [2]) is 0.1 to 1000 nM.

As for `CN1C(=O)[C@@H](NC(=O)c2nn(Cc3ccc(Cl)cn3)cc2F)COc2ccccc21` [Example 216, (S)-1-((5-chloropyridin-2-yl)methyl)-4-fluoro-N-(5-methyl-4-oxo-2,3,4,5-tetrahydrobenzo[b][1,4]oxazepin-3-yl)-1H-pyrazole-3-carboxamide], in test [1] (setting [2]), the IC50 lay within 0.1 to 1000 nM.

Turning to `O=C(N[C@H]1CCc2ccccc2-n2ccnc21)c1nnc(Cc2ccccc2)[nH]1` [Example 52, (S)-5-benzyl-N-(5,6-dihydro-4H-benzo[f]imidazo[1,2-a]azepin-4-yl)-4H-1,2,4-triazole-3-carboxamide], the IC50 in test [1] (Homo sapiens, Jurkat, read-out: Cell IC50, TNFα 10 ng/mL, 48 h) was 0.1 to 1000 nM.

In the case of `CN1C(=O)[C@@H](NC(=O)c2nnc(Cc3ccccc3)[nH]2)[C@H]2C[C@H]2c2cc(C#N)cnc21` [Example 218, 5-benzyl-N-((1aS,2S,8bR)-7-cyano-4-methyl-3-oxo-1,1a,2,3,4,8b-hexahydrocyclopropa[d]pyrido[2,3-b]azepin-2-yl)-4H-1,2,4-triazole-3-carboxamide], in test [1] (setting [2]), the IC50 was 0.1 to 1000 nM.

Turning to `CN1C(=O)C(NC(=O)c2cc(Cc3ccccc3)on2)CC(F)c2ccccc21` (stereo not shown) [Example 2, 5-benzyl-N-(5-fluoro-1-methyl-2-oxo-2,3,4,5-tetrahydro-1H-benzo[b]azepin-3-yl)isoxazole-3-carboxamide], in test [1] (setting [2]), the IC50 lay in the range of 0.1 to 1000 nM.

With `CN1C(=O)[C@@H](NC(=O)c2nnc(Cc3ccccc3)[nH]2)C[C@H](F)c2ccccc21` (mixture of isomers) [Example 12A, 5-benzyl-N-((3S,5S)-5-fluoro-1-methyl-2-oxo-2,3,4,5-tetrahydro-1H-benzo[b]azepin-3-yl)-4H-1,2,4-triazole-3-carboxamide and 5-benzyl-N-((3R,5R)-5-fluoro-1-methyl-2-oxo-2,3,4,5-tetrahydro-1H-benzo[b]azepin-3-yl)-4H-1,2,4-triazole-3-carboxamide], the IC50 in test [1] (TNFα 10 ng/mL, read-out: Cell IC50) is 0.1 to 1000 nM.

Consider `CN1C(=O)[C@@H](NC(=O)c2nn(Cc3ccccn3)cc2F)COc2cccnc21` [Example 74, (S)-4-fluoro-N-(5-methyl-4-oxo-2,3,4,5-tetrahydropyrido[3,2-b][1,4]oxazepin-3-yl)-1-(pyridin-2-ylmethyl)-1H-pyrazole-3-carboxamide], for which, in test [1] (setting [2]), the IC50 was 0.1 to 1000 nM.

On to `CN1C(=O)[C@@H](NC(=O)c2nn(Cc3ccccc3)cc2F)COc2cccnc21` [Example 76, (S)-1-benzyl-4-fluoro-N-(5-methyl-4-oxo-2,3,4,5-tetrahydropyrido[3,2-b][1,4]oxazepin-3-yl)-1H-pyrazole-3-carboxamide], for which, in test [1] (setting [2]), the IC50 lay within 0.1 to 1000 nM.

Turning to `O=C(N[C@H]1CCc2ccccc2-n2cnnc21)c1cc(Cc2ccccc2)on1` [Example 71A, (S)-5-benzyl-N-(5,6-dihydro-4H-benzo[f][11,2,4]triazolo[4,3-a]azepin-4-yl)isoxazole-3-carboxamide], the IC50 in test [1] (setting [2]) was 0.1 to 1000 nM.

Consider `C[C@H]1Oc2cccnc2N(C)C(=O)[C@H]1NC(=O)c1nnc(Cc2ccccc2)s1` [Example 217, 5-benzyl-N-((2R,3S)-2,5-dimethyl-4-oxo-2,3,4,5-tetrahydropyrido[3,2-b][1,4]oxazepin-3-yl)-1,3,4-thiadiazole-2-carboxamide], for which the IC50 in test [1] (setting [2]) is 0.1 to 1000 nM.

Regarding `CN1C(=O)[C@@H](NC(=O)c2cc(Cc3ccccc3)[nH]n2)CC2(CC2)c2ccccc21` [Example 59, 5-benzyl-N-[(3S)-1-methyl-2-oxo-1,2,3,4-tetrahydrospiro[1-benzazepine-5,1-cyclopropane]-3-yl]-1H-pyrazole-3-carboxamide], the IC50 in test [1] (setting [2]) was 0.1 to 1000 nM.

Turning to `CN1C(=O)[C@@H](NC(=O)c2cc(Cc3ccccc3)on2)CCc2sc(Cl)cc21` (stereo in doubt) [Example 1A, 5-Benzyl-N-(2-chloro-4-methyl-5-oxo-4H,5H,6H,7H,8H-thieno[3,2-b]azepin-6-yl)-1,2-oxazole-3-carboxamide], the IC50 in test [1] (setting [2]) is 0.1 to 1000 nM.

These data come from patent publication US10604535B2, “Compounds, compositions and methods” (Denali Therapeutics Inc., priority 2016, dated 2020).
